Data from ChEMBL document CHEMBL1806354 (J Med Chem, 2011).

Legend:
Format in all cases: cell-based
D(1A) dopamine receptor [1] = biological target: T1, D(1A) dopamine receptor (Homo sapiens, UniProt P21728); test: Displacement of [3H]SCH23390 from dopamine D1 receptor expressed in HEK293 cells at 10 uM after 50 mins by beta liquid scintillation counter
D(2) dopamine receptor [2] = biological target: T2, D(2) dopamine receptor (Homo sapiens, UniProt P14416); test: Displacement of [3H]spiperone from dopamine D2 receptor expressed in HEK293 cells at 10 uM after 50 mins by beta liquid scintillation counter
T2 sequence (P14416 whole entry): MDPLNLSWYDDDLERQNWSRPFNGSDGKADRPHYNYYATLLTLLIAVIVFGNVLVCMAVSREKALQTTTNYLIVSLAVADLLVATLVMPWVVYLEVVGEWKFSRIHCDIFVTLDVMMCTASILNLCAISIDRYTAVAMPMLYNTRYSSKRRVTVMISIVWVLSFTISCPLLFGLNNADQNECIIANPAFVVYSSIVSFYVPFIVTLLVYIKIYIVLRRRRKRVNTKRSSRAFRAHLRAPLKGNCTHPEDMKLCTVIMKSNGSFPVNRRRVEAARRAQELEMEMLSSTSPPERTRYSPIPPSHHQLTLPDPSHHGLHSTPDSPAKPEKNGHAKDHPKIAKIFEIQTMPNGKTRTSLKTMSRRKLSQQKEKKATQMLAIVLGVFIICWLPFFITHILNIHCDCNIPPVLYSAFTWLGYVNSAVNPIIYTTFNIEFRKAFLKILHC

[3] = biological target: T3, 5-hydroxytryptamine receptor 1A (Homo sapiens, UniProt P08908); test: Displacement of [3H]-8-OH-DPAT from 5-HT1A receptor expressed in CHO cells after 50 mins by beta liquid scintillation counter
T3 sequence (P08908 whole entry): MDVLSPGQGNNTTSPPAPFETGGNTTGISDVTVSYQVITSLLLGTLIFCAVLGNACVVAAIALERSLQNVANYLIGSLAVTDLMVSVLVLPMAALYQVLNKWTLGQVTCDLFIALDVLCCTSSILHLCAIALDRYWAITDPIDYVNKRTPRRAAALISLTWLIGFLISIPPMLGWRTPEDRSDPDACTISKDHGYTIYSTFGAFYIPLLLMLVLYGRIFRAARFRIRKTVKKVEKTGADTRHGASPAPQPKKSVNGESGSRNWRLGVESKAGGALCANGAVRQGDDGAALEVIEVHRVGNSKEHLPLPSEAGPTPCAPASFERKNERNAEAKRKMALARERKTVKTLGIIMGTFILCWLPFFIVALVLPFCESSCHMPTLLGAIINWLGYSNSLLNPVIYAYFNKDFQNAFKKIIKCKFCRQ

[4] = biological target: T4, 5-hydroxytryptamine receptor 2A (Homo sapiens, UniProt P28223); test: Displacement of [3H]ketanserin from 5-HT2A receptor expressed in CHO cells at 10 uM after 50 mins by beta liquid scintillation counter
T4 sequence (P28223 whole entry): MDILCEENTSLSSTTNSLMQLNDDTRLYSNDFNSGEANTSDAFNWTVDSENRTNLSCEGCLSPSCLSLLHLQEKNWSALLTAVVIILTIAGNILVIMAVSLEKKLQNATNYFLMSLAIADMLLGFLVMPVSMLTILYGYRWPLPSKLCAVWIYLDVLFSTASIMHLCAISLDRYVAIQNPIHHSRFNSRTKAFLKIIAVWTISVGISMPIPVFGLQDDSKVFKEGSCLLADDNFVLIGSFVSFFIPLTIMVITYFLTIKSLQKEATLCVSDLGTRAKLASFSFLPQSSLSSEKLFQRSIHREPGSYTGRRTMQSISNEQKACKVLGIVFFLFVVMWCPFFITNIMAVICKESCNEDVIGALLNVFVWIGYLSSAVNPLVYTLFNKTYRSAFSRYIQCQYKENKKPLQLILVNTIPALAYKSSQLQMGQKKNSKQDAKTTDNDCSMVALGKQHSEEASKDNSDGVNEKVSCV

D(1A) dopamine receptor [5] = biological target: T1, D(1A) dopamine receptor; test: Displacement of [3H]SCH23390 from dopamine D1 receptor expressed in HEK293 cells after 50 mins by beta liquid scintillation counter
D(2) dopamine receptor [6] = biological target: T2, D(2) dopamine receptor; test: Displacement of [3H]spiperone from dopamine D2 receptor expressed in HEK293 cells after 50 mins by beta liquid scintillation counter
[7] = biological target: T4, 5-hydroxytryptamine receptor 2A; test: Displacement of [3H]ketanserin from 5-HT2A receptor expressed in CHO cells after 50 mins by beta liquid scintillation counter

T1 sequence (P21728 whole entry): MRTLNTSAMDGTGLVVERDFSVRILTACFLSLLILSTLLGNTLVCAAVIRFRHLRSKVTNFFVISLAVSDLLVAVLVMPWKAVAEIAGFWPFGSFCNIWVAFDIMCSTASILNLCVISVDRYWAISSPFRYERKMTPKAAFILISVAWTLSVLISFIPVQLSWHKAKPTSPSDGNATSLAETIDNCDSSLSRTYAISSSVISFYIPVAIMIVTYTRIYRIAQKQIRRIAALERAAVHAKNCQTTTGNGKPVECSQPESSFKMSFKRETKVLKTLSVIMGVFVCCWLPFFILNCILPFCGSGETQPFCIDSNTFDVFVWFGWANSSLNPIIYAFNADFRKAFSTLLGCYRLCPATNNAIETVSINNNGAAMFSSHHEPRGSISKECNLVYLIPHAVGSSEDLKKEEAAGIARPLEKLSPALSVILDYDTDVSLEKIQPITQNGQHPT

inhibition (D(2) dopamine receptor [2]) [%]	SMILES	inhibition (D(1A) dopamine receptor [1]) [%]	Ki [3] [nM]	inhibition [4] [%]	Ki (D(1A) dopamine receptor [5]) [µM]	Ki (D(2) dopamine receptor [6]) [nM]	Ki [7] [nM]
13.5	CCCC(=O)Nc1cccc2c1-c1cccc3c1[C@@H](C2)N(CCC)CC3	16.1	380	16.6	–	–	–
–	CCCN1CCc2cccc3c2[C@H]1Cc1cccc(OC(=O)NCc2ccccc2)c1-3	–	90	76.6	2.4	2200	–
–	CCCN1CCc2cccc3c2C1Cc1cccc(OC(=O)NC(C)(C)C)c1-3 (racemic)	44.2	217	20	–	2800	–
–	CCCN1CCc2cccc3c2C1Cc1cccc(OC(=O)NCc2ccccc2)c1-3 (racemic)	–	259	–	4.2	4300	2000
19.5	CCCN1CCc2cccc3c2C1Cc1cccc(-c2noc(CCCCC4CCSS4)n2)c1-3 (racemic)	57	–	–	–	–	–
55.2	CCCN1CCc2cccc3c2C1Cc1cccc(OC(=O)CCCCC2CCSS2)c1-3 (racemic)	62.7	137	14.7	–	–	–
–	CCCN1CCc2cccc3c2[C@H]1Cc1cccc(OC(=O)NC(C)(C)C)c1-3	70.2	96	29.2	–	871	–
–	CCCN1CCc2cccc3c2[C@H]1Cc1cccc(N)c1-3	57.1	276	49.4	–	352	–
33.1	CCCN1CCc2cccc3c2[C@H]1Cc1cccc(NC(=O)CCCCC2CCSS2)c1-3 (stereo not given in full)	27.2	249	36.9	–	–	–
15.7	CCCN1CCc2cccc3c2C1Cc1cccc(CNC(=O)NCC)c1-3 (racemic)	35.4	–	–	–	–	–
–	CCCN1CCc2cccc3c2[C@H]1Cc1cccc(OC(=O)CCCC[C@@H]2CCSS2)c1-3	69.6	45	–	–	296	–
–	CCCN1CCc2cccc3c2[C@H]1Cc1cccc(OC(=O)CCCC[C@H]2CCSS2)c1-3	64.8	35	–	–	342	–
9.6	CCCN1CCc2cccc3c2C1Cc1cccc(CNC(=O)CCCCC2CCSS2)c1-3 (racemic)	32.4	–	–	–	–	–
–	CCCN1CCc2cccc3c2C1Cc1cccc(O)c1-3 (racemic)	55.9	66	14.1	–	–	–
–	CCCC(=O)Oc1cccc2c1-c1cccc3c1[C@@H](C2)N(CCC)CC3	63.2	11.9	68	–	55.5	–
–	CCCN1CCc2cccc3c2[C@H]1Cc1cccc(O)c1-3	63.2	–	63	–	–	–
3.1	CCCN1CCc2cccc3c2C1Cc1cccc(CNC(=S)CCCCC2CCSS2)c1-3 (racemic)	11.4	–	–	–	–	–
–	CCCN1CCc2cccc3c2C1Cc1cccc(OC(=O)CSc2ccccc2)c1-3 (racemic)	67.1	–	–	–	851	–
–	CCCN1CCc2cccc3c2C1Cc1cccc(OC(=O)Nc2cccc4ccccc24)c1-3 (stereo not given)	48	124	21.7	–	2000	–

SMILES	inhibition (D(2) dopamine receptor [2]) [%]	inhibition (D(1A) dopamine receptor [1]) [%]	Ki [3] [nM]	inhibition [4] [%]	Ki (D(1A) dopamine receptor [5]) [µM]	Ki (D(2) dopamine receptor [6]) [nM]	Ki [7] [nM]
CCCNC(=O)Oc1cccc2c1-c1cccc3c1C(C2)N(CCC)CC3 (racemic)	52.7	26.2	258	30.1	–	–	–
CCCN1CCc2cccc3c2C1Cc1cccc(OC(=O)NCC)c1-3 (racemic)	56.7	46.1	218	19.8	–	–	–
CCCNC(=O)Oc1cccc2c1-c1cccc3c1[C@@H](C2)N(CCC)CC3	50.9	56.3	87	16	–	–	–
CCCCNC(=O)Oc1cccc2c1-c1cccc3c1C(C2)N(CCC)CC3 (racemic)	53.2	36.5	385	37.4	–	–	–
CCCN1CCc2cccc3c2[C@H]1Cc1cccc(OC(=O)NCC)c1-3	44.3	54.6	94	14.5	–	–	–
CCCCNC(=O)Oc1cccc2c1-c1cccc3c1[C@@H](C2)N(CCC)CC3	40.9	53.6	89	34.9	–	–	–
